Reference: BindingDB's records for doi:10.1021/jm100812a (Boehringer Ingelheim Pharma, 2010)

Legend:
[1] = target: Activin receptor-like kinase 1, ACVRL1 (Homo sapiens) (UniProt P37023); assay: Inhibition of ALK1
TGF-beta receptor type-1 [2] = target: T1, TGF-beta receptor type-1 (Homo sapiens, UniProt P36897); assay: Inhibition of TGFbeta receptor
T1 sequence (P36897 whole entry): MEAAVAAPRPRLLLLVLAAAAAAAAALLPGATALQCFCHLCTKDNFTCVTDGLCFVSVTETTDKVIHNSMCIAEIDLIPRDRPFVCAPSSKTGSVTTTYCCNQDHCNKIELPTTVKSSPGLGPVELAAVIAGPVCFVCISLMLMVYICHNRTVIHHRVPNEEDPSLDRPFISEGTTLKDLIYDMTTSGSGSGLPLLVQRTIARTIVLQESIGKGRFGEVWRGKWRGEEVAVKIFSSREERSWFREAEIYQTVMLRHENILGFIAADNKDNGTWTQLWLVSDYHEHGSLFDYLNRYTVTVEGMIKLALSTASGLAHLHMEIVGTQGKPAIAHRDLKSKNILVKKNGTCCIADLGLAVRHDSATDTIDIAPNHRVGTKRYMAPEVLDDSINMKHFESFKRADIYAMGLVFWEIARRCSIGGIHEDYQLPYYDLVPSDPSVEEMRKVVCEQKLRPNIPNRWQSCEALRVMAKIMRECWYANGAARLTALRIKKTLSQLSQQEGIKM

TGF-beta receptor type-1 [3] = target: T1, TGF-beta receptor type-1; assay: Inhibition of TGFbeta receptor in human HaCaT cells assessed as Smad phosphorylation by ELISA
[4] = target: Platelet-derived growth factor receptor alpha (Homo sapiens, UniProt P16234); assay: Inhibition of PDGFRalpha
Platelet-derived growth factor receptor alpha, sequence (P16234 whole entry): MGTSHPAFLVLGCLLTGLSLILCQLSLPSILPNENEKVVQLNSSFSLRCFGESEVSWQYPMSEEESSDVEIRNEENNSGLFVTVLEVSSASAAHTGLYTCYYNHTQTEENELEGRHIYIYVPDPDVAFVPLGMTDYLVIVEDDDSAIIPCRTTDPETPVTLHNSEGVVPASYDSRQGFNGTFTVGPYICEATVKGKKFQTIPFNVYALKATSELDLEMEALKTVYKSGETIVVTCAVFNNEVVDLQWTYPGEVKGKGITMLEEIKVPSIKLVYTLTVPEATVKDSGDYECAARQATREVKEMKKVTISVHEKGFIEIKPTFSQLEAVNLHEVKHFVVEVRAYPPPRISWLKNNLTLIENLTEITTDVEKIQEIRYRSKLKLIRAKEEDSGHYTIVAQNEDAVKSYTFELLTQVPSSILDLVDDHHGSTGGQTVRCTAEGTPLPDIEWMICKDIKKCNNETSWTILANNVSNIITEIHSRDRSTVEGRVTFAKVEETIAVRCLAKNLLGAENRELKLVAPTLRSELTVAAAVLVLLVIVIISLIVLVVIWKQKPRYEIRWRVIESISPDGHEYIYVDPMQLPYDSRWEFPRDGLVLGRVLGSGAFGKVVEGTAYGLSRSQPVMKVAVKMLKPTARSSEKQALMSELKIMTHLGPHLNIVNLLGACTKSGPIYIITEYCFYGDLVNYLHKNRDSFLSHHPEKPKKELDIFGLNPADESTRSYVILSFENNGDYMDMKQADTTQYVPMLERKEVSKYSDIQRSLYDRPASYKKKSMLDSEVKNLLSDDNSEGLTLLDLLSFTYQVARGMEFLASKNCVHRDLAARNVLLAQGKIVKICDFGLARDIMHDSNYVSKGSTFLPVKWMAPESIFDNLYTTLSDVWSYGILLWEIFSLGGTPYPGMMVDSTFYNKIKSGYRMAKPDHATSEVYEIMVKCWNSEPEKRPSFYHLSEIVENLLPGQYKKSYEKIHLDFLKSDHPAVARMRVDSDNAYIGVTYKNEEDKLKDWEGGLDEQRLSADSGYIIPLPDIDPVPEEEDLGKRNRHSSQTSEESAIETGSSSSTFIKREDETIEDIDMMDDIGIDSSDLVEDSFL

Activin receptor-like kinase 1, ACVRL1 (Homo sapiens), sequence (P37023 whole entry, looked up): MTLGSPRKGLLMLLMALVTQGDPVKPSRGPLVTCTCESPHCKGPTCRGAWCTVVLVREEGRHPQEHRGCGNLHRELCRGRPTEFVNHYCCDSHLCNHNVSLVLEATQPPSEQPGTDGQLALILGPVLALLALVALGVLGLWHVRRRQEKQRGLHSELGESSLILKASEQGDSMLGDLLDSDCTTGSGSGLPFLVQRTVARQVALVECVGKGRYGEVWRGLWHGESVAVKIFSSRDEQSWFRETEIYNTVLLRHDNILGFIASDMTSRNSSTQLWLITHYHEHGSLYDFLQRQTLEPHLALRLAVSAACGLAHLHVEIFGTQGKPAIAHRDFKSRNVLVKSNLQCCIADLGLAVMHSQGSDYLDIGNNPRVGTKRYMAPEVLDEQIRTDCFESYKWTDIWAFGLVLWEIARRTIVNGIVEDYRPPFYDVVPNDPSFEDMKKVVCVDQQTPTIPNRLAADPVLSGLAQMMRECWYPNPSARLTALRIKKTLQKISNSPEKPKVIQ

| SMILES | IC50 [1] | IC50 (TGF-beta receptor type-1 [2]) | EC50 (TGF-beta receptor type-1 [3]) | IC50 [4] |
| --- | --- | --- | --- | --- |
| CCN(C)C(=O)c1ccc2c(c1)NC(=O)/C2=C(\Nc1ccc(CN2CCCCC2)cc1)c1ccccc1 | 4 µM | – | – | – |
| CCN(C)C(=O)c1ccc2c(c1)NC(=O)C2C(=NC1CCCCC1)c1ccccc1 (configuration not stated) [(Z)-3-((cyclohexylamino)(phenyl)methylene)-N-ethyl-N-methyl-2-oxoindoline-6-carboxamide] | – | > 50 µM | > 10 µM | > 5 µM |
| CCN(C)C(=O)c1ccc2c(c1)NC(=O)C2C(=NC1CCN(C)CC1)c1ccccc1 (configuration not stated) [(Z)-N-ethyl-N-methyl-3-((1-methylpiperidin-4-ylamino)(phenyl)methylene)-2-oxoindoline-6-carboxamide] | – | > 50 µM | > 10 µM | > 5 µM |
